Like-named read-outs stand apart in the source and are kept apart here.
What was measured:
Assay type in all cases: biochemical
human α-thrombin = human α-thrombin (Homo sapiens, UniProt P00734); experiment: Thrombin (fIIa) chromogenic assay, IC50
Factor Xa = molecular target: T1, Factor Xa (Homo sapiens, UniProt P00742); experiment: Factor Xa chromogenic assay, IC50; details: 30 min incubation; read-out: fxa IC50 (30 min)
T1 construct: purchased Enzyme Research Laboratories, Inc. (South Bend, Ind.)
Description: (§1) The ability of compounds of the present invention to act as a selective inhibitor of thrombin activity was assessed by determining the concentration of test-compound which inhibited the activity of this enzyme by 50%, (IC50), and comparing this value to that determined for all or some of the following related serine proteases: recombinant tissue plasminogen activator (rt-PA), plasmin, activated protein C, chymotrypsin, factor Xa and trypsin.
(§2) The buffer used for all assays was HBSA (10 mM HEPES, pH 7.5, 150 mM sodium chloride, 0.1% bovine serum albumin).
(§3) The assay for IC50 determinations was conducted by combining in appropriate wells of a Corning microtiter plate, 50 microliters of HBSA, 50 microliters of the test compound at a specified concentration (covering a broad concentration range) diluted in HBSA (or HBSA alone for V0 (uninhibited velocity) measurement), and 50 microliters of the enzyme diluted in HBSA. Following a 30 minute incubation at ambient temperature, 50 microliters of the substrate at the concentrations specified below were added to the wells, yielding a final total volume of 200 microliters. The initial velocity of chromogenic substrate hydrolysis was measured by the change in absorbance at 405 nm using a Thermo Max® Kinetic Microplate Reader over a 5 minute period in which less than 5% of the added substrate was utilized. The concentration of added inhibitor which caused a 50% decrease in the initial rate of hydrolysis was defined as the IC50 value.
Factor Xa catalytic activity was determined using the chromogenic substrate S-2765 (N-benzyloxycarbonyl-D-arginine-L-glycine-L-arginine-p-n itroaniline ), obtained from DiaPharma Group (Franklin, Ohio). All substrates were reconstituted in deionized water prior to use. […] Purified human Factor X was obtained from Enzyme Research Laboratories, Inc. (South Bend, Ind.) and Factor Xa (FXa) was activated and prepared from it as described [Bock, P. E., Craig, P. A., Olson, S. T., and Singh, P. Arch, Biochem. Biophys, 273:375-388 (1989)]. The enzyme was diluted into HBSA prior to assay in which the final concentration was 0.25 nM.

human plasmin = human plasmin (Homo sapiens, UniProt P00747); experiment: Plasmin chromogenic assay, IC50; details: 30 min incubation
Description: as §1, §2, §3
Plasmin catalytic activity was determined using the chromogenic substrate, S-2366 [L-pyroglutamyl-L-prolyl-L-arginine-p-nitroaniline hydrochloride], which was obtained from DiaPharma group. The substrate was made up in deionized water followed by dilution in HBSA prior to the assay in which the final concentration was 300 micromolar (about 2.5-times Km). Purified human plasmin was obtained from Enzyme Research Laboratories, Inc. The enzyme was diluted into HBSA prior to assay in which the final concentration was 1.0 nM.

[1] = molecular target: T2, bovine pancreatic trypsin (Bos taurus, UniProt P00760); experiment: Trypsin chromogenic assay, IC50; details: 30 min incubation
T2 construct: bovine pancreatic trypsin was obtained from Worthington Biochemical Corp; purchased Worthington Biochemical Corp. TRL3; host or cells: bovine pancreas
T2 sequence (P00760 24-246): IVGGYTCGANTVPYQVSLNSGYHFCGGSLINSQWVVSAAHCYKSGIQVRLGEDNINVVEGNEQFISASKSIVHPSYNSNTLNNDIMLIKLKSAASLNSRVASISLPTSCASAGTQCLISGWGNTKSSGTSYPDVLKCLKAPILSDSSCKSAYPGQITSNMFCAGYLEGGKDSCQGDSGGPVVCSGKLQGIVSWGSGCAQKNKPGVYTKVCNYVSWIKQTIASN
Description: as §1, §2, §3
Trypsin catalytic activity was determined using the chromogenic substrate, S-2222 (benzoyl-L-isoleucine-L-glutamic acid-[gamma-methyl ester]-L-arginine-p-nitroanilide), which was obtained from DiaPharma Group. […] Purified (3×-crystallized; TRL3) bovine pancreatic trypsin was obtained from Worthington Biochemical Corp. The enzyme was reconstituted in deionized water and diluted into HBSA prior to assay in which the final concentration was 0.5 nM.

[2] = 0 min incubation of enzyme with inhibitor, read-out: fIIa IC50 (0 min)
[3] = 30 min incubation of enzyme with inhibitor, read-out: fIIa IC50 (30 min)

Chain of human plasmin (P00747 581-810 limits assumed): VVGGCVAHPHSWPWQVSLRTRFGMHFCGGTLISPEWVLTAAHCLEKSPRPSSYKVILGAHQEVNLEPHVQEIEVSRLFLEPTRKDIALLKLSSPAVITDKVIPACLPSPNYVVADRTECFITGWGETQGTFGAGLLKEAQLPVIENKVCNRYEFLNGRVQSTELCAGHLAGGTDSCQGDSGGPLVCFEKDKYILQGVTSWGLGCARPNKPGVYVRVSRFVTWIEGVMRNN
Chain of human plasmin (P00747 97-580 partner limits assumed): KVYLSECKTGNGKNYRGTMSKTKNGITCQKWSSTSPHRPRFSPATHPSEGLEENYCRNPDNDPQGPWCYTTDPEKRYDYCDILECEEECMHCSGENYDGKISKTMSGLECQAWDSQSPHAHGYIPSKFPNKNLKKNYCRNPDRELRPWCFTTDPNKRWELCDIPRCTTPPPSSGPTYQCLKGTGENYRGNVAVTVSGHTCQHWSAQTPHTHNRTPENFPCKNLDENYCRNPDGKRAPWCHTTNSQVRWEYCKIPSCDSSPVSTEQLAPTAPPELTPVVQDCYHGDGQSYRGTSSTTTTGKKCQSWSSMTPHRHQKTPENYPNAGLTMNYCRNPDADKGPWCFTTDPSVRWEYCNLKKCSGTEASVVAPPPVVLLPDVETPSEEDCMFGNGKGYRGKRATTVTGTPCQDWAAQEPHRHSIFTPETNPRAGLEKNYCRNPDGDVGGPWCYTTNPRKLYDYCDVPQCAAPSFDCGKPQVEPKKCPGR
T1 sequence (P00742 235-488 limits assumed): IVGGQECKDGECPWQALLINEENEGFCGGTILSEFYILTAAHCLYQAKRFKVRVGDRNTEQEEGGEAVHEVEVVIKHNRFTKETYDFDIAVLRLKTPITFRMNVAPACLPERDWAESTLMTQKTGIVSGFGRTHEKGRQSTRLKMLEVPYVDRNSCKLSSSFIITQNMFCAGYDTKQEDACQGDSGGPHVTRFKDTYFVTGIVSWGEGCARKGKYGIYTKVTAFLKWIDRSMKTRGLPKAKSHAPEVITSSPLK
T1 sequence (P00742 41-179 partner limits assumed): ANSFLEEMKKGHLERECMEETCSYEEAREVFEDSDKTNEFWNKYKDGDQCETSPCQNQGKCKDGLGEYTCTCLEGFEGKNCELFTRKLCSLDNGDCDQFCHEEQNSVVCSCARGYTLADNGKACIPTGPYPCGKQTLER

IC50 (human α-thrombin; [2]) [µM] | IC50 (human α-thrombin; [3]) [µM] | IC50 (Factor Xa) [µM] | IC50 (human plasmin) [µM] | IC50 [1] [µM] | SMILES
≤ 0.1 | ≤ 0.1 | ≥ 100 | ≥ 100 | 2.5 to 100 | C#CCOC(=O)N(C)Nc1ncc(C)n(CC(=O)NCc2ccc(N)nc2C)c1=O [Example 59, 1-[5-(2-Amino-6-methylpyridyl)methylcarboxamidomethyl]-6-methyl-3-[2-methyl-2-(propargyloxycarbonyl)hydrazino]pyrazinone, Hydrotrifluoroacetate]
≤ 0.1 | ≤ 0.1 | 2.5 to 100 | ≥ 100 | ≥ 100 | Cc1nc(N)ccc1CNC(=O)Cn1c(C)cnc(NN(CCc2ccccc2)CCc2ccccc2)c1=O [Example 60, 1-[5-(2-Amino-6-methylpyridyl)methylcarboxamidomethyl]-6-methyl-3-[2,2-di(2-phenylethyl)hydrazino]pyrazinone, Hydrotrifluoroacetate]

Reference: patent US6506760B1, “Substituted hydrazinyl heteroaromatic inhibitors of thrombin” (Corvas International, Inc., priority 2000, dated 2003)
